Data as given in patent US20090030024A1, “THIAZOLES AS FUNGICIDES” (priority 2005, published 2009).
Where two headings read alike, the source gives them in different places.

Assays:
[1] = tested on: Phytophthora infestans; assay: whole plant or invertebrate; assay type: in vivo; conditions: in Solanum lycopersicum, 168 h, read-out: efficacy
[2] = logP determination by retention times (calibration with alkan-2-ones)
[3] = logP, * HPLC reversed-phase C18, 40° C., mobile phase 0.1% aqueous formic acid and acetonitrile, linear gradient 10% to 95% acetonitrile
[4] = logP, values marked *: HPLC on reversed-phase C 18, 40° C., mobile phase 0.1% aqueous formic acid and acetonitrile, linear gradient 10% to 95% acetonitrile

Compound | pest or weed control at 500 ppm [1] [%] | chromatographic logP [2] | chromatographic logP [2, 3] | chromatographic logP [2, 4]
COCCOC(=O)Nc1ccc(Nc2nccc(-c3sc(N)nc3C)n2)cc1 [Example 69, 2-methoxyethyl-(4-{[4-(2-amino-4-methyl-1,3-thiazol-5-yl)pyrimidin-2-yl]amino}phenyl)carbamate] | ≥ 70 | 1.4 |  | 
Cc1nc(C)c(-c2ccnc(Nc3ccc(F)cc3)n2)s1 [Example 186, 4-(2,4-dimethyl-1,3-thiazol-5-yl)-N-(4-fluorophenyl)pyrimidine-2-amine] | ≥ 70 | 2.65 |  | 
COc1cc(Nc2nccc(-c3sc(N)nc3C)n2)cc(OC)c1OC [Example 201, 4-(2-amino-4-methyl-1,3-thiazol-5-yl)-N-(3,4,5-trimethoxyphenyl)pyrimidine-2-amine] | ≥ 70 | 1.51 |  | 
COc1ccc(Nc2nccc(-c3sc(N)nc3C)n2)cc1Cl [Example 203, 4-(2-amino-4-methyl-1,3-thiazol-5-yl)-N-(3-chloro-4-methoxyphenyl)pyrimidine-2-amine] | ≥ 70 | 1.63 |  | 
Cc1nc(N)sc1-c1ccnc(Nc2ccccc2)n1 [Example 210, 4-(2-amino-4-methyl-1,3-thiazol-5-yl)-N-phenylpyrimidine-2-amine] | ≥ 70 | 1.51 |  | 
CCc1nc(C)c(-c2ccnc(Nc3ccc(F)cc3)n2)s1 [Example 239, 4-(2-ethyl-4-methyl-1,3-thiazol-5-yl)-N-(4-fluorophenyl)pyrimidine-2-amine] | ≥ 70 | 3.1 |  | 
Cc1nc(C)c(-c2ccnc(Nc3ccc(O)cc3)n2)s1 [Example 321, 4-{[4-(2,4-dimethyl-1,3-thiazol-5-yl)pyrimidin-2-yl]amino}phenol] | ≥ 70 | 1.62 |  | 
Cc1nc(C2CC2)sc1-c1ccnc(Nc2ccc(O)cc2)n1 [Example 324, 4-{[4-(2-cyclopropyl-4-methyl-1,3-thiazol-5-yl)pyrimidin-2-yl]amino}phenol] | ≥ 70 | 2.01 |  | 
CCc1nc(C)c(-c2ccnc(Nc3ccc(O)cc3)n2)s1 [Example 327, 4-{[4-(2-ethyl-4-methyl-1,3-thiazol-5-yl)pyrimidin-2-yl]amino}phenol] | ≥ 70 | 1.88 |  | 
Cc1nc(C(C)C)sc1-c1ccnc(Nc2ccc(O)cc2)n1 [Example 329, 4-{[4-(2-isopropyl-4-methyl-1,3-thiazol-5-yl)pyrimidin-2-yl]amino}phenol] | ≥ 70 | 2.18 |  | 
CCc1nc(C)c(-c2ccnc(Nc3ccc(NC(C)=O)cc3)n2)s1 [Example 460, N-(4-{[4-(2-ethyl-4-methyl-1,3-thiazol-5-yl)pyrimidin-2-yl]amino}phenyl)acetamide] | ≥ 70 |  | 1.88 | 
Cc1nc(N)sc1-c1ccnc(Nc2ccc(CNC(=O)OC(C)(C)C)cc2)n1 [Example 628, tert-butyl-(4-{[4-(2-amino-4-methyl-1,3-thiazol-5-yl)pyrimidin-2-yl]amino}benzyl)carbamate] | ≥ 70 |  | 1.86 | 
CCc1nc(C)c(-c2nc(Nc3cccc(Cl)c3)ncc2Br)s1 [Example 920, 5-bromo-N-(3-chlorophenyl)-4-(2-ethyl-4-methyl-1,3-thiazol-5-yl)pyrimidine-2-amine] |  |  |  | 4.36
CCc1nc(C)c(-c2nc(Nc3ccc(S(=O)(=O)N(C)C)cc3)ncc2Br)s1 [Example 921, 4-{[5-bromo-4-(2-ethyl-4-methyl-1,3-thiazol-5-yl)pyrimidin-2-yl]amino}-N,N-dimethylbenzenesulphonamide] |  |  |  | 3.36
Cc1nc(C(C)C)sc1-c1nc(Nc2cccc(Cl)c2)ncc1Br [Example 922, 5-bromo-N-(3-chlorophenyl)-4-(2-isopropyl-4-methyl-1,3-thiazol-5-yl)pyrimidine-2-amine] |  |  |  | 4.9
